Measured values as given in article PMC7728077, “Double-Headed Cationic Lipopeptides: An Emerging Class of Antimicrobials” (International Journal of Molecular Sciences, 2020).
≈ marks a conversion by molar mass, not a printed value. Square brackets hold non-standard residues; d marks the D form. Peptide text beside a SMILES is read from it. * marks the point of attachment. Palmitoyl = CCCCCCCCCCCCCCCC(=O)*; Dab = NCC[C@H](N)C(=O)O

Key:
[1] = tested on: 46BR.1N human skin fibroblasts cell line; format: cell-based
Method: (§1) Cytotoxicity was determined towards immortalized human HaCaT keratinocytes (DKFZ, Heidelberg, Germany), transformed human fibroblast cell line 46BR.1N (ECACC), as well as the human melanoma (A375), human lung cancer (A549), human colon cancer (HCT-116), human colon adenocarcinoma (HT-29), and human prostate cancer (LNCaP) cell lines. Keratinocytes and fibroblast cell lines were maintained in a humidified atmosphere with 5% CO2 at 37 °C in a Dulbecco’s modified Eagle’s medium (DMEM) (Sigma-Aldrich, Steinheim, Germany), which contained 4500 mg/L of glucose, 584 mg/L of L-glutamine, sodium pyruvate, and sodium bicarbonate. Additionally, the medium was supplemented with 10% of fetal bovine serum (FBS) (Sigma-Aldrich, Steinheim, Germany), 100 U/mL of penicillin, and 100 µg/mL of streptomycin (Sigma-Aldrich, Steinheim, Germany). The cells were grown in culture dishes (BD, Franklin Lakes, NJ, USA) and the medium was changed every 2 days. Afterwards, the fibroblasts and keratinocytes were harvested using a standard trypsin-EDTA solution, centrifuged, suspended in a medium supplemented with 10% FBS and seeded at a density of 5500–6000 cells per well into 96-well plates. After 24 h, the medium was exchanged with a serum- and antibiotic-free DMEM. The next day, serially diluted solutions of the lipopeptides prepared in a fresh FBS- and antibiotic-free medium were added to the wells. The potential cytotoxic effect of the compounds was analyzed over the concentration range of 1–25 µg/mL. After addition of the lipopeptides, cells were incubated for the next 24 h. At the end of the experiment, the cells were treated with 20 µL of MTT (5 mg/mL in PBS). After 3 h at 37 °C under 5% CO2, the medium was discarded and replaced by 6 mM HCl in isopropanol. As soon as the purple crystals of formazan were completely solubilized, absorbance was read at 570 nm with a plate reader. The optical density of the wells without the tested compounds were regarded as the positive control. The MTT assay was performed in triplicate for each cell line.
(§2) Determination of the half-maximum inhibitory concentrations (IC50) was done using GraphPad Prism 5 software (San Diego, CA, USA) based on the dose-response curves. The logarithm of the different concentrations of compounds was plotted against the percentage of inhibition in cell viability as compared with control probes, treated as 100%.

[2] = tested on: HaCaT human keratinocyte cell line; format: cell-based
Method: as §1, §2

[3] = molecular target: POPG large unilamellar vesicles (LUVs); test: Isothermal titration calorimetry, binding to POPG; conditions: ITC, 298.15 K
Method: (§3) Isothermal titration calorimetry (ITC) experiments were carried out at 298.15 K using an AutoITC isothermal titration calorimeter (MicroCal Inc., GE Healthcare, Northampton, MA, USA) equipped with a 1.4491 mL sample cell and a reference cell. A typical ITC experiment involved a series of consecutive injections of 10.02 µL aliquots of the titrant (2 µL for the first injection only) into the reaction cell, at an interval of 4 min. The stirrer speed was constantly kept at 300 rpm to provide thorough mixing inside the reaction cell. Three types of ITC experiments were performed. These included lipopeptides binding to POPG, POPC, and LPS. The experiments were carried out by titration of 1.3 mM POPG or POPC LUVs into 0.05 or 0.1 mM lipopeptide solutions and the titration of 0.5 or 0.75 mM lipopeptide solution into 200 or 400 µg/mL LPS solution. The molecular mass of LPS was assumed to be 20,000 Da. To assess the heat of dilution, control experiments were performed by titration of an appropriate titrant into PBS. Final results were evaluated with an ITC module for ORIGIN 7 software, provided by MicroCal, Inc. (Northampton, MA, USA). The binding constant, stoichiometry, and enthalpy of interactions were directly determined from ITC experiment by fitting one of the built-in curve fitting models to the experimental data points. Changes in entropy (∆S°) and the Gibbs free energy (∆G°) were calculated from the following equation: ∆G^°=−RTln(55.5Ka)=∆H^°−T∆S^° where 55.5 is the molar concentration of water, R is the gas constant (1.986 cal·mol^−1·K^−1), and T is the absolute temperature.

[4] = Analytical RP-HPLC retention time as measure of hydrophobicity; format: physicochemical; conditions: Jupiter 4 µ Proteo 90 Å 250 x 4.60 mm, linear gradient 15-90% B in A in 30 min, 1 ml/min, A 0.1% aqueous TFA, B 80% acetonitrile in water with 0.1% TFA
Method: The lipopeptides were purified in a Waters RP-HPLC preparative system (Jupiter 4 µ Proteo column, 90 Å, 250 × 10 mm) with the linear gradient of solution B in A from 30% to 60% (A, 0.1% solution of TFA in water and B, 80% solution of ACN in water containing 0.1% of TFA) in 40 min with a flow rate of 5 mL/min. Final purity of the analogues (at least 97%) was determined using an analytical RP-HPLC Shimadzu system (Jupiter 4 µ Proteo column, 90 Å, 250 × 4.60 mm) with the linear gradient of solution B in A from 15% to 90% in 30 min with a flow rate of 1 mL/min. Identity of lipopeptides was confirmed by MALDI-TOF mass spectrometry. Analytical data of the synthesized analogues are presented in Table S1 (Supplementary Materials). ^a linear gradient 15-90% of B in A for 30 min, flow rate 1 ml/min, RP-HPLC Shimadzu system, column: Jupiter 4 µ Proteo, 90 Å, 250 x 4.60 mm; A – 0.1% aqueous TFA solution, B – 80% solution of acetonitrile in water with 0.1% of TFA; ^b molecular masses were determined using MALDI-TOF mass spectrometer.

[5] = tested on: lipopolysaccharide (LPS) E. coli 055:B5; test: Isothermal titration calorimetry, binding to LPS; conditions: ITC, two sets of sites model
Method: as §3, with “The experiments were carried out by titration of 1.3 mM POPG or POPC LUVs into 0.05 or 0.1 mM lipopeptide solutions and the titration of 0.5 or 0.75 mM lipopeptide solution into 200 or 400 µg/mL LPS solution. The molecular mass of LPS was assumed to be 20,000 Da. To assess the heat of dilution, control experiments were performed by titration of an appropriate titrant into PBS.” left out

[6] = 1.3 mM POPG LUVs into lipopeptide, PBS, single transition or first line of two binding events

With CCCCCCCCCCCCCCCC(=O)NCC[C@H](NC(=O)[C@@H](N)CCCCN)C(=O)N[C@@H](CCCCN)C(N)=O [K(DabC16)K-NH2] (H-Lys-[Dab](Palmitoyl)-Lys-NH2) the “IC50, 46BR.1N (24h)” value [1] was 9.76 ± 0.70 µg/mL (≈ 15.9 µM), the “IC50, HaCaT (24h)” value [2] was 7.96 ± 2.49 µg/mL (≈ 13 µM) and the “pKITC, POPG” value [3, 6] was 8.09 ± 0.37. The “pKITC, POPG” value ([3]; second line printed for the peptide (second binding event)) was 6.59 ± 0.26 and the “Retention time (used as measure of hydrophobicity)” value (“Retention time” below) [4] was 23.974 min.

With CCCCCCCCCCCCCCCC(=O)NCCCC[C@H](NC(=O)[C@@H](N)CCCCN)C(=O)N[C@@H](CCCCN)C(N)=O [K(KC16)K-NH2] the “IC50, 46BR.1N (24h)” value [1] was 9.36 ± 2.31 µg/mL (≈ 14.6 µM), the “IC50, HaCaT (24h)” value [2] was 9.08 ± 2.28 µg/mL (≈ 14.2 µM) and the “pKITC, POPG” value [3, 6] was 5.66 ± 0.11. For the same compound, the “Retention time” value [4] was 24.731 min.

For CCCCCCCCCCCCCCCC(=O)NCCC[C@H](NC(=O)[C@@H](N)CCCCN)C(=O)N[C@@H](CCCCN)C(N)=O [K(OC16)K-NH2], the “IC50, 46BR.1N (24h)” value [1] was 9.02 ± 0.69 µg/mL (≈ 14.4 µM), the “IC50, HaCaT (24h)” value [2] was 6.25 ± 3.08 µg/mL (≈ 9.98 µM) and the “pKITC, POPG” value [3, 6] was 5.79 ± 0.12. For the same compound, the “Retention time” value [4] was 24.204 min.

For CCCCCCCCCCCCCCCC(=O)NCCCC[C@H](NC(=O)[C@H](CCCCN)NC(=O)[C@@H](N)CCCCN)C(=O)N[C@@H](CCCCN)C(=O)N[C@@H](CCCCN)C(N)=O [KK(KC16)KK-NH2] (H-KKK(Palmitoyl)KK-NH2), the “IC50, 46BR.1N (24h)” value [1] was 7.56 ± 1.31 µg/mL (≈ 8.43 µM), the “IC50, HaCaT (24h)” value [2] was 11.92 ± 1.57 µg/mL (≈ 13.3 µM) and the “pKITC1, LPS E. coli 055:B5” value ([5]; site 1) was 7.67 ± 0.29. The “pKITC2, LPS E. coli 055:B5” value ([5]; site 2) was 6.38 ± 0.14 and the “Retention time” value [4] was 21.745 min.
